Source: patent US20140107316A1, “DRUG DELIVERY CONJUGATES CONTAINING UNNATURAL AMINO ACIDS AND METHODS FOR USING” (priority 2012, published 2014)
“Also recorded” adds a separate entry of the source. Marks after values point to notes of the source that are not given here.

Tests used:
MDA-MB-231 = test: In vitro test against cancer cell lines, MDA-MB-231; assay type: cell-based, Human
Procedure: In vitro test against the various cancer cell lines. Cells are heavily seeded in 24-well Falcon plates and allowed to form nearly confluent monolayers overnight. Thirty minutes prior to the addition of the test compound, spent medium is aspirated from all wells and replaced with fresh folate-deficient RPMI medium (FFRPMI). A subset of wells are designated to receive media containing 100 μM folic acid. The cells in the designated wells are used to determine the targeting specificity. […] Following one rinse with 1 mL of fresh FFRPMI containing 10% heat-inactivated fetal calf serum, each well receives 1 mL of medium containing increasing concentrations of test compound (4 wells per sample) in the presence or absence of 100 μM free folic acid as indicated. Treated cells are pulsed for 2 h at 37° C., rinsed 4 times with 0.5 mL of media, and then chased in 1 mL of fresh medium up to 70 h. Spent medium is aspirated from all wells and replaced with fresh medium containing 5 μCi/mL ^3H-thymidine. […] A 450 μL aliquot of each solubilized sample is transferred to a scintillation vial containing 3 mL of Ecolume scintillation cocktail and then counted in a liquid scintillation counter. Final tabulated results are expressed as the percentage of ^3H-thymidine incorporation relative to untreated controls.
Folate receptor expressing cells. […] EC1456 was evaluated from 0.1-100 nM.

KB tumors = test: KB tumor assay in nu/nu mice; details: for CR (%) / Cures (%) / PR (%) / Toxicity Deaths (%) / Toxicity Avg. Weight Loss: TIW
Procedure: Inhibition of Tumor Growth in Mice. Four to seven week-old mice (Balb/c or nu/nu strains) were purchased from Harlan Sprague Dawley, Inc. (Indianapolis, Ind.). Normal rodent chow contains a high concentration of folic acid (6 mg/kg chow); accordingly, mice used were maintained on the folate-free diet (Harlan diet #TD00434) for 1 week before tumor implantation to achieve serum folate concentrations close to the range of normal human serum. For tumor cell inoculation, 1×10^6 M109 cells (Balb/c strain) or 1×10^6 KB cells (nu/nu strain) in 100 μL were injected in the subcutis of the dorsal medial area. Tumors were measured in two perpendicular directions every 2-3 days using a caliper, and their volumes were calculated as 0.5×L×W^2, where L=measurement of longest axis in mm and W=measurement of axis perpendicular to L in mm. […] Dosing solutions were prepared fresh each day in PBS and administered through the lateral tail vein of the mice.
General KB Tumor Assay. The anti-tumor activity of the compounds described herein, when administered intravenously (i.v.) to tumor-bearing animals, was evaluated in nu/nu mice bearing subcutaneous KB tumors. Approximately 8 days post tumor inoculation in the subcutis of the right axilla with 1×10^6 KB cells (average tumor volume at to=50-100 mm^3), in mice (5/group) were injected i.v. three times a week (TIW), for 3 weeks with […] of the drug delivery conjugate or with an equivalent dose volume of PBS (control), unless otherwise indicated. Tumor growth was measured using calipers at 2-day or 3-day intervals in each treatment group. Tumor volumes were calculated using the equation V=a×b^2/2, where “a” is the length of the tumor and “b” is the width expressed in millimeters.
Toxicity as Measured by Weight Loss. The percentage weight change of the mice was determined in mice (5 mice/group) on selected days post-tumor inoculation (PTI), and graphed.
In vivo activity against tumors.

In the case of CCCC(=O)OCN(C(=O)[C@@H](NC(=O)[C@H]1CCCCN1C)[C@@H](C)CC)[C@H](C[C@@H](OC(C)=O)c1nc(C(=O)N[C@@H](Cc2ccc(O)cc2)C[C@H](C)C(=O)NNC(=O)OCCSSC[C@@H](NC(=O)[C@H](CCC(=O)NC[C@H](O)[C@@H](O)[C@H](O)[C@H](O)CO)NC(=O)[C@@H](CCC(=O)O)NC(=O)[C@H](CCC(=O)NC[C@H](O)[C@@H](O)[C@H](O)[C@H](O)CO)NC(=O)[C@@H](CCC(=O)O)NC(=O)[C@H](CCC(=O)NC[C@H](O)[C@@H](O)[C@H](O)[C@H](O)CO)NC(=O)CC[C@@H](NC(=O)c2ccc(NCc3cnc4nc(N)[nH]c(=O)c4n3)cc2)C(=O)O)C(=O)O)cs1)C(C)C [EC1456], the “Competable up to 100 nM” value (MDA-MB-231; MDA-MB-231) is reported as “Yes”, the IC50 (MDA-MB-231; MDA-MB-231, FR status +, evaluated from 0.1-100 nM, read-out: EC1456 Activity (IC50)) is reported as 0.47 nM and the In vivo activity (KB tumors) is reported as “Complete”. For the same molecule, the “CR (%)” value (KB tumors; 0.5 μmol/kg, 3 weeks) was 0%, the “Cures (%)” value (KB tumors; 0.5 μmol/kg, 3 weeks) was 0% and the “PR (%)” value (KB tumors; 0.5 μmol/kg, 3 weeks) was 60%. The “Toxicity Deaths (%)” value (KB tumors; 0.5 μmol/kg, 3 weeks) was 0%, the “Toxicity Avg. Weight Loss” value (KB tumors; 0.5 μmol/kg, 3 weeks, untreated control group 2.4%) was less than 5%* and the “CR (%)” value (KB tumors; 0.67 μmol/kg, 2 weeks) was 20%. For the same molecule, the “Cures (%)” value (KB tumors; 0.67 μmol/kg, 2 weeks) was 0%, the “PR (%)” value (KB tumors; 0.67 μmol/kg, 2 weeks) was 60% and the “Toxicity Avg. Weight Loss” value (KB tumors; 0.67 μmol/kg, 2 weeks) was less than 2%. The “Toxicity Deaths (%)” value (KB tumors; 0.67 μmol/kg, 2 weeks) was 0%, the “specific activity mediated by the folate receptor” value (KB tumors; 1 μmol/kg TIW co-dosed with excess EC0923 (50 or 100 μmol/kg)) was “competable with excess EC0923” and the “whole animal toxicity (animal body weight)” value (KB tumors; 1 μmol/kg TIW, 2 wk) was “did not result in any observable gross toxicity; also recorded: does not show any evidence of whole animal toxicity”. The “CR (%)” value (KB tumors; 1.0 μmol/kg, 2 weeks) was 0%, the “Cures (%)” value (KB tumors; 1.0 μmol/kg, 2 weeks) was 60% and the “PR (%)” value (KB tumors; 1.0 μmol/kg, 2 weeks) was 40%. The “Toxicity Avg. Weight Loss” value (KB tumors; 1.0 μmol/kg, 2 weeks) was less than 1.5%, the “Toxicity Deaths (%)” value (KB tumors; 1.0 μmol/kg, 2 weeks) was 0% and the “CR (%)” value (KB tumors; 2.0 μmol/kg, 2 weeks) was 0%. The “Cures (%)” value (KB tumors; 2.0 μmol/kg, 2 weeks) was 100%, the “PR (%)” value (KB tumors; 2.0 μmol/kg, 2 weeks) was 0% and the “Toxicity Avg. Weight Loss” value (KB tumors; 2.0 μmol/kg, 2 weeks) was less than 3%. The “Toxicity Deaths (%)” value (KB tumors; 2.0 μmol/kg, 2 weeks) was 0%, the “complete response (test animals)” value (KB tumors; intravenously 1 μmol/kg TIW, 2 wk) was 4/4 and the “toxicity in relation to anti-tumor effect in mice” value (KB tumors; mouse, in vivo) was “anti-tumor responses without significant toxicity”.
